Laboratory results: patent US20210008095A1, “METHODS FOR TREATING MUSCULAR DYSTROPHY” (Sarepta Therapeutics, Inc., priority 2015, published 2021)
Several values for one entry are separate records, joined by “and”; a condition that tells them apart may be missing. Identical values can stand only once. Entries after “also recorded” stand apart in the source; their conditions may differ. Marks after values point to notes of the source that are not given here.

Assays:
Assay type in all cases: in vivo, human
[1] = tested on: patients with Duchenne muscular dystrophy (DMD) amenable to exon 51 skipping; assay: 6 Minute Walk Test (6MWT), Study 201/202; set-up: key to Year 4 6MWT: 6MWT distance walked, in meters; details: for difference in mean change from baseline in 6MWT distance vs matched external control cohort: 12 treated vs 13 controls; for Year 4 6MWT/6MWD / Year 3 6MWT/6MWD: individual subjects; for Year 4 6MWT Difference in Mean Change: vs external matched control
Experimental: For the eteplirsen treated cohort, eligible patients were between 7 and 13 years of age (inclusive), with out-of-frame deletions of the DMD gene that could be corrected by skipping exon 51. Patients were confirmed to have stable cardiac and pulmonary function and a stable dose of glucocorticoids for at least 24 weeks prior to enrollment. Only patients who could walk between 200 and 400 meters […] on the 6-Minute Walk Test (6MWT) at baseline were enrolled.
This 4 year trial was conducted in two phases: (1) treatment was double-blind through week 24 and (2) open-label thereafter. The primary endpoint was change in ambulation as measured by the 6-Minute Walk Test (6MWT).
(§1) Study 201 (Study no. 4658-us-201; ClinicalTrials.gov Identifier: NCT01396239) was a single-site, randomized, double-blind, placebo-controlled, multiple-dose efficacy, safety and tolerability trial of eteplirsen. Twelve patients with DMD were randomized to one of three groups: eteplirsen 30 mg/kg/week (Cohort 1); eteplirsen 50 mg/kg/week (Cohort 2); or placebo/delayed eteplirsen (Cohort 3). All patients received weekly intravenous eteplirsen or placebo/delayed eteplirsen dosing. Placebo-treated patients crossed over to weekly eteplirsen 30 (n=2) or 50 mg/kg (n=2) at week 25. Efficacy and safety were assessed at scheduled visits, and an independent Data Safety Monitoring Board ensured the welfare of all patients. All patients had bicep biopsies at baseline. Follow-up biopsies were performed in the opposite arm (biceps) at week 12 for the 50 mg/kg group and two placebo-treated patients and at week 24 for the 30 mg/kg group and two placebo-treated patients.
(§2) Patients continued weekly dosing with 30 or 50 mg/kg eteplirsen under Study 202 (Study no. 4658-us-202; ClinicalTrials.gov Identifier: NCT01540409) a long-term, open-label extension study. All efficacy assessments continued to be performed during Study 202, including a third biopsy (in the left deltoid muscle) in all patients at week 48. A voluntary fourth biopsy ( 11/12 patients) was performed at week 180. Monitoring of adverse events continued throughout the study.
(§3) To compare the results of the eteplirsen cohort to a matched external control cohort, the Italian Telethon (n=97) and Leuven Neuromuscular Research Center (NMRC) (n=89) registries were used to compile control data. These registries were chosen because the following data was available: longitudinal 6MWT data in exon 51 amenable patients, longitudinal 6MWT data up to 36 months, and genetic mutation data. There was also an equivalent standard of care, including steroids, in these registries. Patient data was selected based on the following factors: baseline 6MTW and steroid treatment, age of 7 years or older, and amenable to exon 51 skipping (FIG. 2)
(§4) The 6MWT was administered using the protocol established for patients with DMD by McDonald, et al. (Muscle Nerve, 2010; 42:966-74; Muscle Nerve, 2010; 41:500-10 herein incorporated by reference), except there was no use of the StepWatch actimetry device. Exploratory functional outcomes included the North Star Ambulatory Assessment, quantitative muscle testing, the 9-Hole Peg Test, pulmonary function testing (PFT), timed function tests, and assessment of quality of life.

[2] = tested on: patients with Duchenne muscular dystrophy (DMD) amenable to exon 51 skipping; assay: Loss of ambulation / ambulatory status incl. Kaplan-Meier analysis, Study 201/202
Experimental: as §1, §2, §3, §4

[3] = tested on: dystrophin; assay: Dystrophin protein expression by western blot analysis in muscle biopsy; details: 180 weeks
Experimental: In some embodiments, the percent dystrophin-positive fibers are calculated by dividing the number of positive fibers by the total fibers counted. Normal muscle samples have 100% dystrophin-positive fibers. Therefore, the percent dystrophin-positive fibers can be expressed as a percentage of normal. To control for the presence of trace levels of dystrophin in the pretreatment muscle as well as revertant fibers a baseline can be set using sections of pre-treatment muscles from each patient when counting dystrophin-positive fibers in post-treatment muscles. This may be used as a threshold for counting dystrophin-positive fibers in sections of post-treatment muscle in that patient. In other embodiments, antibody-stained tissue sections can also be used for dystrophin quantification using Bioquant image analysis software (Bioquant Image Analysis Corporation, Nashville, Tenn.). The total dystrophin fluorescence signal intensity can be reported as a percentage of normal. […] Dystrophin production can also be measured by reverse-transcription polymerase chain reaction (RT-PCR). […] The percentage of dystrophin-positive fibers can also be analyzed by determining the expression of the components of the sarcoglycan complex (β,γ) and/or neuronal NOS. […]

[4] = tested on: patients with Duchenne muscular dystrophy (DMD) amenable to exon 51 skipping; assay: North Star Ambulatory Assessment (NSAA); set-up: key to Year 3 NSAA Score: sum of activity scores, each 2 = normal to 0 = unable independently
Excerpt: Due to decreases in muscle function in patients with DMD, ambulation is often lost during disease progression. Ambulation can be measured through various methods, including the North Star Ambulatory Assessment (NSAA). The NSAA was developed by the Physiotherapy Assessment and Evaluation Group of the North Start Clinical Network to assess ambulant boys with DMD, and provides a list of activities that are scored from 2-0, with 2 being normal and 0 being “unable to achieve independently” (2006-2011 MDC/North Star Clinical Network). These activities range from standing for a minimum of 3 seconds to climbing up and down a box to running. In certain embodiments, treatment with eteplirsen may maintain, stabilize, increase, or improve ambulation, for example, as determined by the NSAA.
as §4

RNA, [P-deoxy-P-(dimethylamino)](2′,3′-dideoxy-2′,3′-imino-2′,3′-seco)(2′a→5′)(C-m5U-C-C-A-A-C-A-m5U-C-A-A-G-G-A-A-G-A-m5U-G-G-C-A-m5U-m5U-m5U-C-m5U-A-G), 5′-[P-[4-[[2-[2-(2-hydroxyethoxy)ethoxy]ethoxy]carbonyl]-1-piperazinyl]-N,N-dimethylphosphonamidate] (antisense CTCCAACATCAAGGAAGATGGCATTTCTAG; all phosphorodiamidate morpholino (PMO); 5' piperazinyl triethylene glycol carbamate tail on phosphonamidate, further chemistry not fully specified) [eteplirsen]
difference in mean change from baseline in 6MWT distance vs matched external control cohort ([1]; 4 years): 162 m
difference in mean change from baseline in 6MWT distance vs matched external control cohort ([1]; 36 months / 3 years): 151 m
6MWT distance percent change from baseline ([1]; 42 months, all 12 treated patients, external control −74% at month 36): −42%
6MWT distance percent change from baseline ([1]; 48 months, placebo-delayed patients excluded (n=8)): −43%
Year 4 6MWT/6MWD ([1]; 216 weeks, dose group 30 mg/kg): 349 meters and 332 meters and 0 meters (2×)
Year 4 6MWT/6MWD ([1]; 216 weeks, dose group 50 mg/kg): 192 meters and 221 meters and 237 meters and 400 meters
Year 4 6MWT/6MWD ([1]; 216 weeks, dose group Placebo to 30 mg/kg): 197 meters and 55 meters
Year 4 6MWT/6MWD ([1]; 216 weeks, dose group Placebo to 50 mg/kg): 230 meters and 143 meters
Year 4 6MWT ([1]; Table 5, individual ambulatory subjects (n=10)): 192 and 197 and 230 and 332 and 221 and 55† and 400 and 349 and 237 and 143
Year 4 6MWT Distance (m) ([1]; Table 6, individual ambulatory subjects (n=10)): 55† m and 332 m and 230 m and 221 m and 400 m and 349 m and 192 m and 143 m and 237 m and 197 m
Year 3 6MWT/6MWD ([1]; dose group 30 mg/kg): 378 meters and 359 meters and 0 meters (2×)
Year 3 6MWT/6MWD ([1]; dose group 50 mg/kg): 324 meters and 355 meters and 298 meters and 483 meters
Year 3 6MWT/6MWD ([1]; dose group Placebo to 30 mg/kg): 312 meters and 100 meters
Year 3 6MWT/6MWD ([1]; dose group Placebo to 50 mg/kg): 301 meters and 247 meters
walking distance over the study ([1]; over the duration of the study, FIG. 6): maintained a stable walking distance
walking ability retained relative to baseline ([1]; several subjects including subject number 4, 216 weeks): greater than 50%
change in 6MWT relative to baseline ([1]; subject number 15, 216 weeks): lost one meter
6MWT distance at year 4 in patients below the NSAA threshold at year 3 ([1]; subjects 003 and 005, respectively): 143 meters and 192 meters
Year 4 6MWT Difference in Mean Change ([1]; ANCOVA, Covariate: Baseline 6MWT): 150.3, p = 0.002
Year 4 6MWT Difference in Mean Change ([1]; ANCOVA, Covariates: Baseline 6MWT, Age): 156.1, p = 0.002
Year 4 6MWT Difference in Mean Change ([1]; ANCOVA, Rank transformed data): 8.7, p = 0.001
Year 4 6MWT Difference in Mean Change ([1]; MMRM, Covariate: Baseline 6MWT): 146.5, p = 0.003
Year 4 6MWT Difference in Mean Change ([1]; MMRM, Covariates: Baseline 6MWT, Age): 143.1, p = 0.004
Year 4 6MWT Difference in Mean Change ([1]; MMRM, Rank transformed data): 8.4, p = 0.004
patient ambulation between weeks 168 and 192 ([1]; weeks 168 to 192 (42 to 48 months)): patient ambulation stabilized; also recorded: stabilized patient ambulation
Kaplan-Meier estimate for loss of ambulation rate ([2]; 4 years / 216 weeks of treatment, external control 89.7%, p=0.0038 log-rank): 16.7%
patients remaining ambulant ([2]; 216 weeks (over 4 years)): 83.3%
number of patients remaining ambulant ([2]; 216 weeks of treatment): 10 out of 12
age for loss of ambulation ([2]; Kaplan-Meier, external control median 12.8 years): could not be estimated
number of patients who lost ambulation ([2]; over 36 months): two of the twelve
cohort that lost ambulation (cumulative) ([2]; over 36 months, external control 46.2%): 16.7%
number of patients who lost ambulation ([2]; over 216 weeks): two of the twelve
DMD patients remaining ambulant ([2]; week 192, 30 mg/kg once per week): 83%
number of patients ambulant ([2]; week 192 of treatment): 10/12
ambulation in patients who lost the ability to rise from supine ([2]; year 4 of treatment): remained ambulant at year 4
patients with dystrophin protein expression as measured by western blot analysis [3]: 9 of 11
rate of decline in NSAA score ([4]; at 2 and 3 years following treatment, vs external control): slower rate of decline in NSAA score
difference in NSAA score compared to the external control group cohort ([4]; at 3 years): 2.6 points
Year 3 NSAA Score ([4]; individual ambulatory subjects (n=10)): 13 (3×) and 14 and 24 and 25 (2×) and 7 and 8 and 11
